Key:
[1] = test system: HCT116; test: Cytotoxicity, sulforhodamine B (SRB) assay, HCT116; assay type: cell-based, human; conditions: HCT116, Colon, 48 h
Description: (§1) Human non-small cell lung cancer (NSCLC) cell lines (e.g., A549, H441GL and H1299), colon cancer cell lines (e.g., HCT116 and DLD1), breast cancer cell lines (e.g., MCF7 and MDA-MB-231), and pancreatic cancer cell lines (e.g., PANC-1 and SUIT-2) were used in cytotoxicity studies. These NSCLC cell lines have intrinsic resistance to epidermal growth factor receptor (EGFR) inhibitors, e.g., gefitinib. A549 and H441GL are EGFR-wild type adenocarcinoma cell lines. H1299 is an EGFR-wild type large cell carcinoma cell line. HCT116 and DLD1 are metastatic colon cell lines. MCF7 is a hormone-responsive breast cancer cell line. MDA-MB-231 is a triple-negative breast cancer cell line. PANC-1 is a metastatic adenocarcinoma cell line. SUIT-2 is a pancreatic ductal adenocarcinoma cell line.
(§2) All cell lines were grown and maintained in RPMI medium supplemented with 10% fetal bovine serum (FBS, Invitrogen), 2 mM L-glutamine, 100 U/mL penicillin, and 100 μg/mL streptomycin. For cell the culture experiment, stock solution (10 mM) of each test compound was dissolved in dimethyl sulfoxide (DMSO; Sigma).
(§3) Cells were plated in 96-well plates at a density of 2000 cells per well in triplicate. The cells in each well were treated on the third day (to ensure proper plating efficiency and vitality) with different concentrations (0-50 μM) of each test compound for 48 h.
(§4) Cell viability was assessed using the sulforhodamine B (SRB) assay. The medium was discarded, and the adherent cells were fixed by 100 μL of cold 10% trichloroacetic acid (w/v) in each well for 1 h at 4° C. After fixation, cells were stained with 100 μL/well of 0.4% (w/v, in 1% acetic acid) SRB solution for 30 min at room temperature, and then washed 5 times with 1% acetic acid. After air-drying, 100 μL of 10 mM Tris base was added to each well and the absorbance was read at 530 nm. Cytotoxicity is expressed as the percent of cells in drug treated wells relative to number of cells in the solvent only control (set to 100%). Each experiment was performed independently in triplicate and cytotoxicity IC50 value of each test compound was calculated from cytotoxicity data obtained at various concentrations.

[2] = test system: MDA-MB-231; test: Cytotoxicity, sulforhodamine B (SRB) assay, MDA-MB-231; assay type: cell-based, human; conditions: MDA-MB-231, Breast, 48 h
Description: as §1, §2, §3, §4

[3] = test system: PANC-1; test: Cytotoxicity, sulforhodamine B (SRB) assay, PANC-1; assay type: cell-based, human; conditions: PANC-1, Pancreas, 48 h, NA = no activity
Description: as §1, §2, §3, §4

[4] = test system: DLD1; test: Cytotoxicity, sulforhodamine B (SRB) assay, DLD1; assay type: cell-based, human; conditions: DLD1, Colon, 48 h
Description: as §1, §2, §3, §4

[5] = test system: lung cancer cells; test: Cytotoxicity SRB assay, summary of Table 2; assay type: cell-based, Human; conditions: summary in words of Table 2
Description: as §1, §3, §4
NA indicates no activity.

[6] = test system: A549; test: Cytotoxicity, sulforhodamine B (SRB) assay, A549; assay type: cell-based, Human; conditions: A549, 48 h, NA indicates no activity
Description: as §1, with “These NSCLC cell lines have intrinsic resistance to epidermal growth factor receptor (EGFR) inhibitors, e.g., gefitinib.” left out
as §2, §3, §4

[7] = test system: SUIT-2; test: Cytotoxicity, sulforhodamine B (SRB) assay, SUIT-2; assay type: cell-based, human; conditions: SUIT-2, Pancreas, 48 h
Description: as §1, §2, §3, §4

[8] = test system: H441GL; test: Cytotoxicity, sulforhodamine B (SRB) assay, H441GL; assay type: cell-based, Human; conditions: 48 h, NA indicates no activity
Description: as §1, with “These NSCLC cell lines have intrinsic resistance to epidermal growth factor receptor (EGFR) inhibitors, e.g., gefitinib.” left out
as §2, §3, §4

[9] = test system: MCF7; test: Cytotoxicity, sulforhodamine B (SRB) assay, MCF7; assay type: cell-based, human; conditions: MCF7, Breast, 48 h
Description: as §1, §2, §3, §4

[10] = test system: H441GL cells; test: Study 2: tumor size in mouse lung cancer model; assay type: in vivo, NOD/SCID mice; conditions: for Tumor Size [Fold Change from Week 3 (Mean ± SD, n = 4)] Week 3 / Tumor Size [Fold Change from Week 3 (Mean ± SD, n = 4)] Week 9 / Tumor Size [Fold Change from Week 3 (Mean ± SD, n = 4)] Week 13: Study 2, 0.0127 mmol/kg daily, i.p.; for Tumor Size [Fold Change from Week 3 (Mean ± SD, n = 4)] Week 3: Week 3 (baseline, start of treatment)
Method: (§5) H441GL cells (1×10^6 cells in 100 μL phosphate-buffered saline/injection) were subcutaneously injected into the right flank of NOD/SCID mice (female, 4-6 weeks old). Mice were allowed 2 weeks for tumor growth. On the first day of Week 3 post injection, tumor-bearing mice were randomly divided into control group (DMSO vehicle, intraperitoneal (i.p.) injection) and test compound treatment groups (5 mg/kg/day, 5 days/week, i.p. injection). Over the period of 10 weeks, tumorigenesis in both groups was measured using a caliper on a weekly basis. The change in tumor size was expressed as in fold change from Week 3. In this study body weight of each mouse was also recorded at the end of each study week.
In this study, the daily dose was 0.0127 mmol/kg instead of 5 mg/kg.

[11] = test system: H441GL cells; test: Study 1: tumor size in mouse lung cancer model; assay type: in vivo, NOD/SCID mice; conditions: for Tumor Size [Fold Change from Week 3 (Mean ± SD, n = 4)] Week 3 / Tumor Size [Fold Change from Week 3 (Mean ± SD, n = 4)] Week 9 / Tumor Size [Fold Change from Week 3 (Mean ± SD, n = 4)] Week 13: Study 1, 5 mg/kg/day, 5 days/week, i.p.; for Tumor Size [Fold Change from Week 3 (Mean ± SD, n = 4)] Week 3: Week 3 (baseline, start of treatment)
Method: as §5

| SMILES | IC50 [1] | IC50 [2] | IC50 [3] | IC50 [4] | inhibition of cell proliferation of lung cancer cells [5] | IC50 [6] | IC50 [7] | IC50 [8] | IC50 [9] | effect on tumor growth as compared to the vehicle control ([10]; Study 2, 0.0127 mmol/kg daily i.p., by Week 13, in words) | Tumor Size [Fold Change from Week 3 (Mean ± SD, n = 4)] Week 3 [10] | Tumor Size [Fold Change from Week 3 (Mean ± SD, n = 4)] Week 9 [10] | Tumor Size [Fold Change from Week 3 (Mean ± SD, n = 4)] Week 13 [10] | Tumor Size [Fold Change from Week 3 (Mean ± SD, n = 4)] Week 3 [11] | Tumor Size [Fold Change from Week 3 (Mean ± SD, n = 4)] Week 9 [11] | Tumor Size [Fold Change from Week 3 (Mean ± SD, n = 4)] Week 13 [11] | effect on tumor growth as compared to the vehicle control ([11]; Study 1, 5 mg/kg/day i.p., in words) |
| --- | --- | --- | --- | --- | --- | --- | --- | --- | --- | --- | --- | --- | --- | --- | --- | --- | --- |
| COCCOCCOCCN1CCN(CCCN2c3ccccc3Sc3ccc(C(F)(F)F)cc32)CC1 [Compound 4-1b] | 6.5 µM | 14.7 µM | 20 µM | 8 µM | inhibit cell proliferation | 26.3 µM | 13.3 µM | 10.5 µM | 13.1 µM |  |  |  |  |  |  |  |  |
| COCCOCCOCCOCCOCCOCCN1CCN(CCCN2c3ccccc3Sc3ccc(C(F)(F)F)cc32)CC1 [Compound 4-2b] | 6.5 µM | 15.8 µM | 10.5 µM | 13.9 µM | inhibit cell proliferation | 21.3 µM | 15.6 µM | 6.8 µM | 13.2 µM | largest effect of suppressing tumor growth | 1 ± 0 Fold Change | 9.4 ± 2.6 Fold Change | 23.3 ± 6.2 Fold Change |  |  |  |  |
| COCCOCCOCCOCCOCCOCCOCCOCCOCCOCCOCCOCCN1CCN(CCCN2c3ccccc3Sc3ccc(C(F)(F)F)cc32)CC1 [Compound 4-3b] | 8.4 µM | 13.8 µM | 15.2 µM | 18 µM | inhibit cell proliferation | 11.5 µM | 22 µM | 10.5 µM | 10.2 µM |  | 1 ± 0 Fold Change | 11.7 ± 2.1 Fold Change | 30.2 ± 6.2 Fold Change |  |  |  |  |
| COCCOCCOCCOC(=O)N1CCN(CCCN2c3ccccc3Sc3ccc(C(F)(F)F)cc32)CC1 [Compound 5-1b, NDT-CO—O—[CH2CH2O]3—CH3] | 10 µM | 21.6 µM | 18.2 µM | 35.9 µM | inhibit cell proliferation | 3.8 µM | 21.4 µM | 3.2 µM | 13.6 µM |  |  |  |  | 1 ± 0 Fold Change | 28.2 ± 7.4 Fold Change | 69.8 ± 18.4 Fold Change |  |
| COCCOCCOCCOCCOCCOCCOC(=O)N1CCN(CCCN2c3ccccc3Sc3ccc(C(F)(F)F)cc32)CC1 [Compound 5-2b, NDT-CO—O—[CH2CH2O]6—CH3] | 7.3 µM | 15.8 µM | 12.5 µM | 15.2 µM | inhibit cell proliferation | 3.2 µM | 10.8 µM | 2.7 µM | 12 µM |  |  |  |  | 1 ± 0 Fold Change | 23.4 ± 7.5 Fold Change | 51.6 ± 17.6 Fold Change | largest effect of suppressing tumor growth |

From patent publication US9850219B1, “Phenothiazine derivatives and methods of use thereof” (Acenda Pharma, Inc., priority 2016, dated 2017)
